How the values were obtained:
Conditions in all cases: incubation time: 72 h
BT-474 [1] = assay: normalised response (% of control), CellTox Green; higher = less cell death (100 = DMSO, 0 = benzethonium chloride kill control)
How it was run: (§1)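 Two readouts were taken after 72 h: CellTox Green fluorescence (485/520 nm) first, then CellTiter-Glo luminescence after 10 min at room temperature. Breast cancer cell lines had been seeded as 20 µl suspension into 384-well plates holding compound at 5 concentrations in 10-fold steps across a compound-specific 10,000-fold range. Each value is a normalised signal at a single concentration, with plates scaled to 0.1 % DMSO (100) and a positive kill control (0).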

BT-549 [2] = assay: as above
How it was run: as §1

CAL-120 [3] = assay: as above
How it was run: as §1

CAL-148 [4] = assay: as above
How it was run: as §1

CAL-51 [5] = assay: as above
How it was run: as §1

CAL-85-1 [6] = assay: as above
How it was run: as §1

DU-4475 [7] = assay: as above
How it was run: as §1

HCC1143 [8] = assay: as above
How it was run: as §1

HCC1599 [9] = assay: as above
How it was run: as §1

HCC1937 [10] = assay: as above
How it was run: as §1

HDQ-P1 [11] = assay: as above
How it was run: as §1

Hs578T [12] = assay: as above
How it was run: as §1

MCF-10A [13] = assay: as above
How it was run: as §1

MDA-MB-231 [14] = assay: as above
How it was run: as §1

MDA-MB-436 [15] = assay: as above
How it was run: as §1

MDA-MB-453 [16] = assay: as above
How it was run: as §1

MDA-MB-468 [17] = assay: as above
How it was run: as §1

MFM-223 [18] = assay: as above
How it was run: as §1

BT-474 [19] = assay: normalised response (% of control), CellTiter-Glo; higher = more viable cells (100 = DMSO, 0 = benzethonium chloride kill control)
How it was run: as §1

BT-549 [20] = assay: as above
How it was run: as §1

CAL-120 [21] = assay: as above
How it was run: as §1

CAL-148 [22] = assay: as above
How it was run: as §1

CAL-51 [23] = assay: as above
How it was run: as §1

CAL-85-1 [24] = assay: as above
How it was run: as §1

DU-4475 [25] = assay: as above
How it was run: as §1

HCC1143 [26] = assay: as above
How it was run: as §1

HCC1599 [27] = assay: as above
How it was run: as §1

HCC1937 [28] = assay: as above
How it was run: as §1

HDQ-P1 [29] = assay: as above
How it was run: as §1

Hs578T [30] = assay: as above
How it was run: as §1

MCF-10A [31] = assay: as above
How it was run: as §1

MDA-MB-231 [32] = assay: as above
How it was run: as §1

MDA-MB-436 [33] = assay: as above
How it was run: as §1

MDA-MB-453 [34] = assay: as above
How it was run: as §1

MDA-MB-468 [35] = assay: as above
How it was run: as §1

MFM-223 [36] = assay: as above
How it was run: as §1

SK-BR-3 = assay: as above
How it was run: as §1

SMILES	normalised response (BT-474 [1]) [%]	normalised response (BT-549 [2]) [%]	normalised response (CAL-120 [3]) [%]	normalised response (CAL-148 [4]) [%]	normalised response (CAL-51 [5]) [%]	normalised response (CAL-85-1 [6]) [%]	normalised response (DU-4475 [7]) [%]	normalised response (HCC1143 [8]) [%]	normalised response (HCC1599 [9]) [%]	normalised response (HCC1937 [10]) [%]	normalised response (HDQ-P1 [11]) [%]	normalised response (Hs578T [12]) [%]	normalised response (MCF-10A [13]) [%]	normalised response (MDA-MB-231 [14]) [%]	normalised response (MDA-MB-436 [15]) [%]	normalised response (MDA-MB-453 [16]) [%]	normalised response (MDA-MB-468 [17]) [%]	normalised response (MFM-223 [18]) [%]	normalised response (BT-474 [19]) [%]	normalised response (BT-549 [20]) [%]	normalised response (CAL-120 [21]) [%]	normalised response (CAL-148 [22]) [%]	normalised response (CAL-51 [23]) [%]	normalised response (CAL-85-1 [24]) [%]	normalised response (DU-4475 [25]) [%]	normalised response (HCC1143 [26]) [%]	normalised response (HCC1599 [27]) [%]	normalised response (HCC1937 [28]) [%]	normalised response (HDQ-P1 [29]) [%]	normalised response (Hs578T [30]) [%]	normalised response (MCF-10A [31]) [%]	normalised response (MDA-MB-231 [32]) [%]	normalised response (MDA-MB-436 [33]) [%]	normalised response (MDA-MB-453 [34]) [%]	normalised response (MDA-MB-468 [35]) [%]	normalised response (MFM-223 [36]) [%]	normalised response (SK-BR-3) [%]
CN1CCC(COc2cnc(-c3cccc(Cn4nc(-c5cccc(C#N)c5)ccc4=O)c3)nc2)CC1 (100 nM)	97.9	149	98.9	103	93.3	95.1	97.6	101	110	125	103	110	102	119	99.9	107	157	101	92.7	94	95.8	100	74	93.5	100	93.3	102	97.7	98.9	104	99.3	101	93.1	85.2	90.9	90.5	82.2
C=CCNC1=C2C[C@@H](C)C[C@H](OC)[C@H](O)[C@@H](C)/C=C(\C)[C@H](OC(N)=O)[C@@H](OC)/C=C\C=C(/C)C(=O)NC(=CC1=O)C2=O [Tanespimycin] (10 nM)																			90.4	98.3	97.9	96.4	120	100	105	105	94.4	96.5	98.2	94.4	105	101	92.6	92.8	94.2	101	103
CO[C@H]1C[C@@H]2CC[C@@H](C)[C@@](O)(O2)C(=O)C(=O)N2CCCC[C@H]2C(=O)O[C@H]([C@H](C)C[C@@H]2CC[C@@H](OC(=O)C(C)(CO)CO)[C@H](OC)C2)CC(=O)[C@H](C)/C=C(\C)[C@@H](O)[C@@H](OC)C(=O)[C@H](C)C[C@H](C)/C=C/C=C/C=C/1C [Temsirolimus] (0.01 nM)																			103	98.3	99.6	110	115	106	103	98.1	97	97.1	105	96.7	101	101	99.7	108	106	101	101
CO[C@H]1C[C@@H]2CC[C@@H](C)[C@@](O)(O2)C(=O)C(=O)N2CCCC[C@H]2C(=O)O[C@H]([C@H](C)C[C@@H]2CC[C@@H](OC(=O)C(C)(CO)CO)[C@H](OC)C2)CC(=O)[C@H](C)/C=C(\C)[C@@H](O)[C@@H](OC)C(=O)[C@H](C)C[C@H](C)/C=C/C=C/C=C/1C [Temsirolimus] (10 nM)	103	134	101	90.9	107	95.8	95.5	84	101	-57.4	97.4	-83.2		124	102	107	103	75.2	83.3	55.1	67.8	62.1	55.5	67.9	74.8	63.9	109	74.4	77.4	70	87.7	93	79.9	53.5	62.1	70.7	60.7
